Columns and labels:
[1] = test system: MDA MB231 breast cancer cell suspension; test: Ultrasound-induced DOX transfer from bubble walls into cells (fluorescence); type: cell-based; conditions: 0.75 mg/ml Dox/0.5% PEG-PLLA/2% PFP formulation; 3-MHz ultrasound, 2 W/cm^2, 20% duty cycle, 30-s exposure
Source text: (B) Fluorescence image of the MDA MB231 cell (thick arrow) and bubble (thin arrow) aggregates formed in the capillary during a 150-s sonication (corresponding to a 30-s ultrasound exposure time) by 3-MHz ultrasound at a 2 W/cm^2 nominal power density with a 20% duty cycle, with the focus on the bubbles. Ultrasound was applied directly to the slide through the Aquasonic coupling gel. (C) Fluorescence image of another cell aggregate of the same sample, with focus on the cells.
The elucidation of this problem would allow designing optimal ultrasound protocols. Previous data was re-evaluated. These experiments were performed by sonicating a nanodroplet/cell mixture placed in a plastic capillary (internal diameter 340 μm) of a snake mixer slide.

[2] = test system: red fluorescent protein labeled MiaPaCa-2 cells; test: Orthotopic pancreatic cancer model, chemotherapy with or without ultrasound; type: in vivo, Mice; conditions: no ultrasound treatment
Experimental: Orthotopic pancreatic cancer was inoculated surgically in the pancreatic tail. Mice received a single sub-capsular injection of 1×10^6 red fluorescent protein labeled MiaPaCa-2 cells suspended in 0.125 mL serum free media (DMEM). All procedures were done utilizing a 12× Universal S3B microscope.
Following the primary surgery, high resolution (3456 pixels×2304 pixels) whole body digital images (EOS Digital Rebel, Canon USA, Lake Success, N.Y.) of each mouse were obtained once a week to monitor primary tumor growth and presence of metastases. The red fluorescent protein was visualized with an Illumatool Bright Light System that consisted of a 563 nm excitation filter and a 587 nm emission filter (Model LT-9900, LightTools Research, Encinitas, Calif.). Animals were imaged under nose-cone induced isoflurane general anesthesia. Primary tumor area was quantified using public domain software ImageJ (National Institutes of Health http://rsb.info.nih.gov/ij/).
Animals were randomly assigned to six groups, six animals each: (1) negative control (injection of PBS); (2) GEM at 140 mg/kg (positive control 1); (3) GEN at 20 mg/kg as PTX (positive control 2); (4) GEM+GEN combination treatment; (5) GEN+ultrasound; (6) GEM+nbGEN+ultrasound. […] Nominal ultrasound intensity was 3.4 W/cm^2, which corresponded to a measured MI=0.59. […]

| Compound | Cell fluorescence after sonication (DOX transfer into cells) [1] | Ascitis in ultrasound images [2] |
| --- | --- | --- |
| COc1cccc2c1C(=O)c1c(O)c3c(c(O)c1C2=O)C[C@@](O)(C(=O)CO)C[C@@H]3O[C@H]1C[C@H](N)[C@H](O)[C@H](C)O1 [DOX, doxorubicin] | acquired strong fluorescence |  |
| Nc1ccn([C@@H]2O[C@H](CO)[C@@H](O)C2(F)F)c(=O)n1 [GEM, gemcitabine] |  | clearly visible |
